Data taken from US20240360151A1 (SANOFI, priority 2023, published 2024).
pIC50: −log10 of the molar value.

Experiments:
[1] = target: T1, NLRP3 inflammasome (Homo sapiens, UniProt Q96P20); test: IL-1β secretion assay (NLRP3 IC50) in LPS-primed, nigericin-activated THP-1 cells, HTRF; assay type: cell-based; settings: monocytic THP-1 cells; LPS 10 ng/mL 3 h priming, then compound + nigericin 10 μM 2 h; relative IC50, 10 concentrations, geometric mean
T1 construct: endogenous in cells; host or cells: THP-1 monocytic cells
Procedure, shortened: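 IL-1β in supernatant read by HTRF after 2 h co-incubation of compound (0.1% DMSO, 10 concentrations, 1:3 series) with nigericin at 10 μM final, following 3 h LPS (10 ng/mL) priming of THP-1 monocytes at 37° C. Inhibition normalised to unactivated and no-compound controls; geometric-mean relative IC50 from 4-parameter logistic model.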

[2] = tested on: NF-kB pathway (TNF-α secretion by THP-1 cells); test: TNF-α secretion assay in LPS-stimulated THP-1 cells, Lumit immunoassay; assay type: cell-based, human; settings: monocytic THP-1 cells, LPS 10 ng/mL, relative IC50, 10 concentrations, geometric mean
Experimental: Monocytic THP-1 cells were maintained in RPMI 1640 media (Gibco 21875)+10% FBS, (Gibco 10500)+1% penicillin/streptomycin (Gibco 15140-122). Cells were then plated at 40,000 cells per well in 384-well cell culture plates (Corning 3542) and maintained with RPMI1640 (Gibco 11835)+5% FBS, (Gibco 10500). Experimental compounds were prepared and added as described above. TNF-α secretion was triggered by the addition of 10 ng/mL LPS (invivoGen, tlrl-3pelps) and cells were incubated for 3 hours. TNF-α levels were monitored directly in the cells plate using an Lumit assay (Lumit TNFa-Human Immunoassay—Promega W6051) according to manufacturers' instructions.
Data were expressed as percentage of inhibition (I %) as compared to a maximum signal control containing no small molecule (I %=0%) according to the formula: 1%=(1−((Sample−Min))/((Max−Min)))×100, where: • Sample: Signal obtained in the presence of each compound tested, • Max: Maximum signal in the absence of compound added, • Min: Minimum or background signal obtained in the absence of activation signal.
Relative IC50 (IC50 rel) were obtained from a dose response curve with 10 concentrations. Final IC50 rels are expressed as the geometric mean.
Relative IC50 values were estimated with Biost@t-SPEED v2.4 internal software based on SAS system using the 4-parameter logistic model according to Ratkovsky and Reedy (D. A. Ratkovsky, T. J. Reedy, Choosing near-linear parameters in the four parameters logistic model radioligands and related assays. Biometrics, 42 (1986), 575-582): Y=A+C/((1+exp(−B*(log(X)−M)))), where: • A: Lower asymptote (BOTTOM), • A+C: Upper asymptote (TOP), • M: the logarithm of the concentration estimated at the inflexion point (the logarithm of the relative IC50), • B: Slope at the inflexion point of the curve.

T1 sequence (Q96P20 whole entry): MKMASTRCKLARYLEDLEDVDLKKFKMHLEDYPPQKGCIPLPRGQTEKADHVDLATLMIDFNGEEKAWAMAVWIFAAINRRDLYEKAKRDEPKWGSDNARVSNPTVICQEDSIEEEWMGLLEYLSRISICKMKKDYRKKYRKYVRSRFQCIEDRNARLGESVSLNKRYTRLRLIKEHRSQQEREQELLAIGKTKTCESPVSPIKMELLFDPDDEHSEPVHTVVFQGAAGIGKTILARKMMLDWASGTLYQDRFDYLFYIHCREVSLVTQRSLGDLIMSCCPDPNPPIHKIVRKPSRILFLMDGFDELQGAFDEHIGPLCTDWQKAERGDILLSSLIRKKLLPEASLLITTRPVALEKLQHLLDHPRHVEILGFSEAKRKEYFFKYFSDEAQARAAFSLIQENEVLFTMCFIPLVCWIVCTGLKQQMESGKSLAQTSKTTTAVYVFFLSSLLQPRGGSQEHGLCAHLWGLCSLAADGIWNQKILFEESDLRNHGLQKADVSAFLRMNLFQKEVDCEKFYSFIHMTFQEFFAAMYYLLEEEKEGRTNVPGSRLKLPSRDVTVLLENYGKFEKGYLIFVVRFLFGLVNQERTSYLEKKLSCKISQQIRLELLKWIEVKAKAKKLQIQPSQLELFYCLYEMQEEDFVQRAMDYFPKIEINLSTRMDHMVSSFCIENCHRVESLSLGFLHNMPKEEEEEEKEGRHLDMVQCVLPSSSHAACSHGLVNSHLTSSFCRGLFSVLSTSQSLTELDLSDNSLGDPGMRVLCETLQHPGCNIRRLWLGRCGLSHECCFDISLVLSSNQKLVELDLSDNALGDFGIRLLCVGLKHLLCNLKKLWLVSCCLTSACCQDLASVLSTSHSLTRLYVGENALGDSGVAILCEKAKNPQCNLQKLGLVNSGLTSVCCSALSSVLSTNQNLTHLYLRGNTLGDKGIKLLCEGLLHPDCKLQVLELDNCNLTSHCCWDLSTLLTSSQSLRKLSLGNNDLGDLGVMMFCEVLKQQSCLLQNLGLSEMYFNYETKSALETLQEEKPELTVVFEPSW

SMILES | pIC50 [1] | pIC50 ([2]; Homo sapiens, THP-1, 3 h) | pIC50 ([2]; 3 hours)
CCN1CC[C@H]2CCN(c3ccc(-c4c(C)cc(C(F)(F)F)cc4O)nn3)[C@H]2C1 (racemic) [Example 378, 2-[6-[rac-(3aS,7aR)-6-ethyl-3,3a,4,5,7,7a-hexahydro-2H-pyrrolo[2,3-c]pyridin-1-yl]pyridazin-3-yl]-3-methyl-5-(trifluoromethyl)phenol] | 9.00 | < 5.00 | –
Cc1cccc(O)c1-c1ccc(N2CC[C@@H]3CCN(C)C[C@@H]32)nn1 (racemic) [Example 385, 3-methyl-2-[6-[rac-(3aS,7aR)-6-methyl-3,3a,4,5,7,7a-hexahydro-2H-pyrrolo[2,3-c]pyridin-1-yl]pyridazin-3-yl]phenol] | 8.70 | < 5.00 | –
CCc1cccc(O)c1-c1ccc(N2CC[C@@H]3CCN(C)C[C@@H]32)nn1 (racemic) [Example 388, 3-ethyl-2-[6-[rac-(3aS,7aR)-6-methyl-3,3a,4,5,7,7a-hexahydro-2H-pyrrolo[2,3-c]pyridin-1-yl]pyridazin-3-yl]phenol] | 9.00 | < 5.00 | –
CN1CC[C@H]2CCN(c3ccc(-c4c(O)cccc4C(F)(F)F)nn3)[C@H]2C1 (racemic) [Example 389, 2-[6-[rac-(3aS,7aR)-6-methyl-3,3a,4,5,7,7a-hexahydro-2H-pyrrolo[2,3-c]pyridin-1-yl]pyridazin-3-yl]-3-(trifluoromethyl)phenol] | 8.70 | < 5.00 | –
Cc1cc(C)c(-c2ccc(N3CCO[C@H]4CCN(C5CCC5)C[C@H]43)nn2)c(O)c1 (single isomer, unassigned) [Example 10] | 6.75 | < 5.00 | –
Cc1cc(C)c(-c2ccc(N3CCO[C@@H]4CCN(C5CCC5)C[C@@H]43)nn2)c(O)c1 (single isomer, unassigned) [Example 11] | 8.52 | < 5.00 | –
Cc1cc(C(F)(F)F)cc(O)c1-c1ccc(N2CCO[C@H]3CCN(C4CCC4)C[C@H]32)nn1 (single isomer, unassigned) [Example 12] | 6.77 | < 5.00 | –
Cc1cc(C(F)(F)F)cc(O)c1-c1ccc(N2CCO[C@@H]3CCN(C4CCC4)C[C@@H]32)nn1 (single isomer, unassigned) [Example 13] | 8.70 | < 5.00 | –
Cc1cc(C(F)(F)F)cc(O)c1-c1ccc(N2CCOC(C(C)(C)O)C2)nn1 (single isomer, unassigned) [Example 53, 2-[6-[2-(1-hydroxy-1-methyl-ethyl)morpholin-4-yl]pyridazin-3-yl]-3-methyl-5-(trifluoromethyl)phenol] | 6.56 | < 5.00 | –
Cc1cc(C(F)(F)F)cc(O)c1-c1ccc(N2CCO[C@H](CN(C)C)C2)nn1 (single isomer, unassigned) [Example 59, 2-[6-[-2-[(dimethylamino)methyl]morpholin-4-yl]pyridazin-3-yl]-3-methyl-5-(trifluoromethyl)phenol] | 6.69 | < 5.00 | –
Cc1cc(C(F)(F)F)cc(O)c1-c1ccc(N2CCOC(CN(C)C)C2)nn1 (single isomer, unassigned) [Example 60, 2-[6-[-2-[(dimethylamino)methyl]morpholin-4-yl]pyridazin-3-yl]-3-methyl-5-(trifluoromethyl)phenol] | 6.41 | < 5.00 | –
Cc1cc(C)c(-c2ccc(N3C[C@H](CO)CC3=O)nn2)c(O)c1 (single isomer, unassigned) [Example 137] | 6.39 | < 5.00 | –
Cc1cc(C)c(-c2ccc(N3C[C@@H](CO)CC3=O)nn2)c(O)c1 (single isomer, unassigned) [Example 138] | 6.36 | < 5.00 | –
Cc1cc(C)c(-c2ccc(N3CC[C@H](CO)C3=O)nn2)c(O)c1 (single isomer, unassigned) [Example 139] | 6.63 | < 5.00 | –
Cc1cc(C)c(-c2ccc(N3CC[C@@H](CO)C3=O)nn2)c(O)c1 (single isomer, unassigned) [Example 140] | 6.68 | < 5.00 | –
CNC(=O)C[C@@H]1CN(c2ccc(-c3c(C)cc(C)cc3O)nn2)CCO1 (single isomer, unassigned) [Example 142] | 6.44 | < 5.00 | –
CNC(=O)C[C@H]1CN(c2ccc(-c3c(C)cc(C)cc3O)nn2)CCO1 (single isomer, unassigned) [Example 143] | 6.66 | < 5.00 | –
Cc1cc(C)c(-c2ccc(N3CCO[C@H](CC(N)=O)C3)nn2)c(O)c1 (single isomer, unassigned) [Example 146] | 6.62 | < 5.00 | –

SMILES | pIC50 [1] | pIC50 ([2]; Homo sapiens, THP-1, 3 h) | pIC50 ([2]; 3 hours)
Cc1cc(C)c(-c2ccc(N3CCO[C@@H](CC(N)=O)C3)nn2)c(O)c1 (single isomer, unassigned) [Example 147] | 6.24 | < 5.00 | –
CCC(=O)C1CN(c2ccc(-c3c(C)cc(C)cc3O)nn2)CCO1 (single isomer, unassigned) [Example 157] | 6.50 | < 5.00 | –
Cc1cc(C)c(-c2ccc(N3CCOC([C@@H](C)O)C3)nn2)c(O)c1 (single isomer, unassigned) [Example 180] | 6.33 | < 5.00 | –
Cc1cc(C)c(-c2ccc(N3CCO[C@H](CCO)C3)nn2)c(O)c1 (single isomer, unassigned) [Example 233] | 6.79 | < 5.00 | –
Cc1cc(C)c(-c2ccc(N3CCO[C@@H](CCO)C3)nn2)c(O)c1 (single isomer, unassigned) [Example 234] | 6.45 | < 5.00 | –
Oc1cc(Cl)cc(Cl)c1-c1ccc(N2CCO[C@@H](CF)C2)nn1 (single isomer, unassigned) [Example 237] | 7.62 | 5.39 | –
Oc1cc(Cl)cc(Cl)c1-c1ccc(N2CCO[C@H](CF)C2)nn1 (single isomer, unassigned) [Example 238] | 7.33 | 5.37 | –
Cc1cc(C(F)(F)F)cc(O)c1-c1ccc(N2CCO[C@H]3CCNC[C@H]32)nn1 (single isomer, unassigned) [Example 251] | 7.68 | < 5.00 | –
Cc1cc(C(F)(F)F)cc(O)c1-c1ccc(N2CCO[C@@H]3CCNC[C@@H]32)nn1 (single isomer, unassigned) [Example 252] | 6.34 | < 5.00 | –
CCN1CC[C@@H]2OCCN(c3ccc(-c4c(C)cc(C(F)(F)F)cc4O)nn3)[C@@H]2C1 (single isomer, unassigned) [Example 255] | 6.60 | < 5.00 | –
CCN1CC[C@H]2OCCN(c3ccc(-c4c(C)cc(C(F)(F)F)cc4O)nn3)[C@H]2C1 (single isomer, unassigned) [Example 256] | 9.00 | < 5.00 | –
Cc1cc(C(F)(F)F)cc(O)c1-c1ccc(N2CCO[C@@H]3CCN(C)C[C@@H]32)nn1 (single isomer, unassigned) [Example 260] | 6.74 | < 5.00 | –
Cc1cc(C(F)(F)F)cc(O)c1-c1ccc(N2CCO[C@H]3CCN(C)C[C@H]32)nn1 (single isomer, unassigned) [Example 261] | 9.00 | < 5.00 | –
CC(=O)N1CC[C@H]2OCCN(c3ccc(-c4c(C)cc(C(F)(F)F)cc4O)nn3)[C@H]2C1 (single isomer, unassigned) [Example 262] | 7.77 | < 5.00 | –
CC(=O)N1CC[C@@H]2OCCN(c3ccc(-c4c(C)cc(C(F)(F)F)cc4O)nn3)[C@@H]2C1 (single isomer, unassigned) [Example 263] | 6.74 | < 5.00 | –
Cc1cc(C(F)(F)F)cc(O)c1-c1ccc(N2CC[C@H]3CN(C)C[C@H]32)nn1 (single isomer, unassigned) [Example 270] | 6.31 | < 5.00 | –
CC(=O)NCCC1CN(c2ccc(-c3c(C)cc(C(F)(F)F)cc3O)nn2)CCO1 (single isomer, unassigned) [Example 277, N-[2-[4-[6-[2-hydroxy-6-methyl-4-(trifluoromethyl)phenyl]pyridazin-3-yl]morpholin-2-yl]ethyl]acetamide] | 7.29 | – | 5.69
